Tested on: cytolytic activity of CD8+ T cells against allogenic (MBL-2) target cells
Assay: Chromium release assay (in vitro cytotoxicity), B6+C26GM culture: immunosuppressed splenocytes from tumor-bearing mice
Type: cell-based
Conditions: strong immunosuppressive conditions, 5-h 51Cr-release

Compound	Range of concentration to rescue cytolytic activity
CC(=O)OCc1no[n+]([O-])c1C(N)=O [AT24]	INEFFECTIVE
CC(=O)OCc1no[n+]([O-])c1C#N [AT25]	INEFFECTIVE
CC(=O)Oc1ccccc1C(=O)OCc1no[n+]([O-])c1C(N)=O [AT27]	25 µM
NC(=O)c1c(COC(=O)c2ccccc2O)no[n+]1[O-] [AT38]	25 µM
NC(=O)c1c(COc2ccc(C(=O)O)c(O)c2)no[n+]1[O-] [AT43]	INEFFECTIVE
NC(=O)c1c(COC(=O)c2ccccc2)no[n+]1[O-] [AT44]	INEFFECTIVE
NC(=O)c1c(COC(=O)c2ccc(O)cc2)no[n+]1[O-] [AT45]	100 µM
NC(=O)c1c(COC(=O)c2cccc(O)c2)no[n+]1[O-] [AT47]	50 µM
NC(=O)c1c(S(=O)(=O)c2ccccc2)no[n+]1[O-] [AT94]	INEFFECTIVE
NC(=O)c1c(COC(=O)/C=C/c2ccccc2)no[n+]1[O-] [AT110]	100 µM
NC(=O)c1c(COC(=O)c2cccnc2)no[n+]1[O-] [AT112]	200 µM
NC(=O)c1c(COC(=O)/C=C/c2ccccc2O)no[n+]1[O-] [AT113]	100 µM

Tested on: cytolytic activity of CD8+ T cells against allogenic (MBL-2) target cells
Assay: Chromium release assay (in vitro cytotoxicity), B6+Balb+3% CD11b+ mixed leucocytes culture
Type: cell-based, mice
Conditions: 5-h 51Cr-release

Compound	Range of concentration to rescue cytolytic activity
CC(=O)OCc1no[n+]([O-])c1C(N)=O [AT24]	INEFFECTIVE
NC(=O)c1c(COC(=O)c2ccccc2)no[n+]1[O-] [AT44]	76 µM
NC(=O)c1c(COC(=O)c2ccc(O)cc2)no[n+]1[O-] [AT45]	72 µM

Tested on: coloncarcinoma26
Assay: Immunohistochemistry of tumors of tumor-bearing mice after oral AT38
Type: in vivo, BALB/c mice
Conditions: 10, 30 and 100 mg/kg/day orally for nine days; compared to untreated controls

Compound	CD3+ T tumor infiltrating lymphocytes	nitrotyrosine staining
NC(=O)c1c(COC(=O)c2ccccc2O)no[n+]1[O-] [AT38]	enhancement	strong reduction

Tested on: not given
Assay: not given
Conditions: not given

melting point [°C]	Compound
171 to 172	NC(=O)c1c(COC(=O)c2ccc(Cl)cc2)no[n+]1[O-]
190 to 191	N#Cc1ccc(C(=O)OCc2no[n+]([O-])c2C(N)=O)cc1
163 to 165	NC(=O)c1c(COC(=O)c2ccccc2)no[n+]1[O-] (hydrate or solvate)
206 to 208	NC(=O)c1c(COC(=O)c2ccc(N)cc2)no[n+]1[O-] (hydrate or solvate)
176 to 177	NC(=O)c1c(COC(=O)c2ccccc2O)no[n+]1[O-] (hydrate or solvate)
203 to 204	NC(=O)c1c(COC(=O)c2cccc(O)c2)no[n+]1[O-] (hydrate or solvate)
241 to 242	NC(=O)c1c(COC(=O)c2ccc(O)cc2)no[n+]1[O-] (hydrate or solvate)
163 to 164	NC(=O)c1c(COC(=O)c2ccc(F)cc2)no[n+]1[O-] (hydrate or solvate)
172 to 173	NC(=O)c1c(COC(=O)c2ccc([N+](=O)[O-])cc2)no[n+]1[O-] (hydrate or solvate)
149 to 150	Cc1ccc(C(=O)OCc2no[n+]([O-])c2C(N)=O)cc1 (hydrate or solvate)
175 to 176	COc1ccc(C(=O)OCc2no[n+]([O-])c2C(N)=O)cc1 (hydrate or solvate)

From patent publication US8592464B2, “Nitric oxide furoxan derivative compounds endowed with antitumoral activity” (Humanitas Mirasole S.p.A., priority 2009, dated 2013)
